The source of these data is patent EP3884941A1, “INFLAMMASOME INHIBITORS AND USE THEREOF” (CENTRO DE INVESTIGACION PRINCIPE FELIPE, priority 2020, dated 2021).

The subject of experiment [1] is NLRP3 inflammasome. As to the kind of experiment: inflammasome activation cellular assay, LPS plus ATP, THP-1 cells. Type of experiment: cell-based, human. As for the experimental part:
(§1) The MM01 compound was evaluated in the THP-1, or PMA-differentiated THP-1 cells (50 nM PMA for 24h) stimulated with lipopolysaccharide (LPS) plus adenosine triphosphate (ATP) to stimulate ASC-dependent inflammasomes NLRP3. Briefly, 1x10^6 cells were seeded in 6-well plates in 1 mL RPMI media that contained 1% FBS. Cells were either mock-treated or primed with compounds at the indicated concentrations for 30 min, followed by treatment with 100 ng/mL LPS (Sigma) and 2.5 mM ATP (Sigma) for 6 h at 37°C. In the case of nigericin stimulation, cells were primed with LPS for 3h, and then 10 µM nigericin (Sigma) was added for 30 min. Supernatants were harvested and clarified by centrifugation at 1500 rpm at RT, and a cytokine analysis was performed. Both IL-1β secretion and the release of IL-18were monitored by an ELISA assay (BD OptEIA™ Human IL-1β ELISA Kit and Human IL-18 Module Set eBioscience) following the manufacturer's instructions. Cell viability was analyzed in parallel by evaluating the release of lactate dehydrogenase (LDH) according to a commercial kit (CytoTox-ONE™ Homogeneous Membrane Integrity Assay; Promega). The release of LDH was calculated using the formula: the release of LDH (%) = 100x (Abs490 treated -Abs490 untreated cells)/ Abs490 untreated cells lysed with Triton 9% (maximum release of LDH).
(§2) The supernatants of the treated cells were precipitated by the chloroform-methanol method. Pellets were obtained by lysing cells in 25 mM of Tris-HCI pH 7.4, 1 mM EDTA, 1 mM EGTA and 1% SDS, plus protease and phosphatase inhibitors. The protein concentration was determined by the BCA protein assay. Samples were separated in a 14% SDS-PAGE gel, transferred to a nitrocellulose membrane and blocked with 5% skimmed milk for 1 h. Then the membrane was incubated overnight with primary antibodies: α-casp1 (1:1000; Cell Signaling 2225), α-IL-1β (1:1000; Acris R1130P), α-NLRP3 (1:1000; Cell Signaling 15101), α-tubulin (1:3000; Abcam ab6160) at 4°C. Membranes were washed and probed with the appropriate secondary antibody conjugated with peroxidase for enhanced chemiluminescence detection (Amersham Pharmacia Biotech).

Experiment [2] has as its system NLRP3 inflammasome. As to the kind of experiment: inflammasome activation cellular assay, LPS plus nigericin, PMA-differentiated THP-1 cells. Type of experiment: cell-based, human. As to conditions: MM01 10 µM. As for the experimental part: as §1
as §2, with “Membranes were washed and probed with the appropriate secondary antibody conjugated with peroxidase for enhanced chemiluminescence detection (Amersham Pharmacia Biotech).” left out

For the next experiment, the target named is T1, caspase-9 (Homo sapiens, UniProt P55211).
T1 sequence (P55211 1-416): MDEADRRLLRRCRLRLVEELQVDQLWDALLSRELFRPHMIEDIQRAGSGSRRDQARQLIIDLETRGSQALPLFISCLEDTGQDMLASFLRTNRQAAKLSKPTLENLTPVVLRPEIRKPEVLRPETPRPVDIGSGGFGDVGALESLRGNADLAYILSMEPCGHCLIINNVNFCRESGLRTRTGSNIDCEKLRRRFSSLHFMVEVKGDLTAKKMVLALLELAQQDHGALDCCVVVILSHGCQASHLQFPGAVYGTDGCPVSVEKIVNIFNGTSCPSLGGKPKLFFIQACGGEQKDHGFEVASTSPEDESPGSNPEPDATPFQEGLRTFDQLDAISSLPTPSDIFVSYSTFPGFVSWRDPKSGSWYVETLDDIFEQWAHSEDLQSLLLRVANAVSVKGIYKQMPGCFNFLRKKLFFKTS
The experiment can be described thus: caspase-9 activity assay (Na-citrate pre-activated). Type of experiment: biochemical. The settings on record: recombinant caspase-9; MM01 5 µM (Figure 2B). The procedure:
Caspase-9 was activated with kosmotropic salts, in particular with Na-citrate. Briefly, 5 µM caspase-9 was pre-activated for 20 min in SC buffer (50 mM Na2HPO4, 150 mM NaCl, 1.5% sucrose, 0.05% CHAPS, 10 mM DTT, 0.7 M Na-citrate, pH 7.4) at RT. Once pre-activated, the complete reaction was diluted to 100 nM caspase-9 in assay buffer without Na-Citrate and incubated 20 min at RT in the presence or absence of compounds. Enzyme activity was monitored by adding the Ac-LEHD-afc substrate (40 µM) using a Victor 2 spectrofluorimeter.

Experiment [3] relates to NLRP3 inflammasome. As to the kind of experiment: human PBMCs cellular assay, LPS plus ATP. As to conditions: IL-1β and LDH release; MM01 1, 5 or 10 µM (Figure 5E, 5F). Type of experiment: cell-based. The procedure:
Human peripheral blood mononuclear cells (PBMCs) are lymphocytes and monocytes. PBMCs were separated from the whole blood by a density gradient centrifugation method using Ficoll Histopaque. Purified PBMCs were plated in 24-well plates at 5000000 cells/well in free-serum RPMI medium. Cells were primed for 3 h with 10 ng/ml pure LPS followed by 4 h with compounds and 5 mM ATP. Supernatants were harvested and clarified by centrifugation at 1500 rpm at RT and cytokine and caspase-1 activation analysis was performed as previously described.

Another experiment deals with AIM2 inflammasome. The experiment can be described thus: AIM2 inflammasome activation, poly(dA:dT), PMA-differentiated THP-1 cells. Type of experiment: cell-based, human. The settings on record: PMA-differentiated THP-1, poly(dA:dT) 200 µg/ml; MM01 10 µM. As for the experimental part:
(§3) The materials and methods employed in these experiments are now described. The molecules were evaluated in the THP-1, or PMA-differentiated THP-1 cells (50 nM PMA for 24h) as described in Example 3. To stimulate NLRP1 inflammasome, cells were either mock-treated or primed with compounds at the indicated concentrations for 30 min, followed by treatment with 100 ng/mL LPS (Sigma) and 50 µg/ml MDP (Sigma) for 6 h at 37°C. In the case of NLRC4 inflammasome induction, cells were pretreated with the compounds for 30 min and then cells were stimulated for 3 h with Salmonella Typhimurium (MOI 5). To induce AIM2 inflammasome, cells were pretreated in the same conditions as before and transfected with poly(dA:dT) (200 µg/ml; Sigma) overnight using Lipofectamine 2000 (Invitrogen). Both IL-1β secretion and the release of IL-18 were monitored as previously described in Example 3.

The subject of the next experiment is human NLRP1 inflammasome. As to the kind of experiment: NLRP1 inflammasome activation, LPS plus MDP, THP-1 cells. In kind it is cell-based. As for the experimental part: as §3
The mark [4] stands for this setting: THP-1, LPS 100 ng/ml + ATP 2.5 mM, MM01 1, 2.5 or 5 µM, ELISA.
Setting [5] is: PMA-differentiated THP-1, LPS 100 ng/ml + nigericin 10 µM.

Entries after “also recorded” stand apart in the source; their conditions may differ.

Regarding `C=CCN1C(=O)/C(=C2/C(=O)Nc3ccccc32)SC1=S` [MM01], the IL-1β secretion result in the experiment on NLRP3 inflammasome [1] (setting [4]) is on record as “decrease”; with NLRP3 inflammasome [2] (setting [5]), “decreased”; with AIM2 inflammasome it was “significantly decreased”. Moreover, the results for the IL-18 secretion result with NLRP3 inflammasome [1] (setting [4]) and in the experiment on NLRP3 inflammasome [2] (setting [5]) were “decrease” and “decreased”, respectively. Also, the “caspase-1 and IL-1β processing” value in the experiment with NLRP3 inflammasome [1] (THP-1, LPS + ATP, immunoblotting (Figure 3C)) is on record as “decrease”. For the same molecule, the LDH release entry in the experiment on NLRP3 inflammasome [1] (THP-1, LPS + ATP, pyroptosis / cell viability, MM01 1, 2.5 or 5 µM, VX-765 5 µM) is “significantly reduce; also recorded: significantively decreased”. Besides, the pyroptotic cell death entry is given as “decreased” in the experiment on NLRP3 inflammasome [2] (PMA-differentiated THP-1, LPS + nigericin, LDH release) and “protected” in the experiment with human NLRP1 inflammasome (THP-1, LPS + MDP, LDH release). Moreover, the caspase-9 activity result on caspase-9 is on record as “do not act on”. In the experiment with NLRP3 inflammasome [3], the “LPS/ATP stimulation of isolated human PBMCs” value was “inhibits”. Besides, the IL-18 release result in the experiment with human NLRP1 inflammasome (THP-1, LPS 100 ng/ml + MDP 50 µg/ml) was “avoided”. Moreover, in the experiment on human NLRP1 inflammasome (THP-1, LPS 100 ng/ml + MDP 50 µg/ml, MM01 1, 2.5 or 5 µM), the IL-1β release entry is recorded as “avoided”. In the experiment with human NLRP1 inflammasome (THP-1, LPS 100 ng/ml + MDP 50 µg/ml, pretreatment), the procaspase-1 activation result was “avoided”.
